In US10538567B2, “Compounds as peptidic trigonal GLP1/glucagon/GIP receptor agonists” (priority 2016, dated 2020):
Numbered stars: 1 amine (or outer) side, 2 acyl side, 3 side chain; on linkers, the order of the positions; unused ones are H or OH. Square brackets hold non-standard residues; d marks the D form. Side chains are listed from the residue outwards. Peptide text beside a SMILES is read from it. * marks the point of attachment. γGlu = O=C(O)[C@H](CCC(=O)[*:2])N[*:1]; Palmitoyl = CCCCCCCCCCCCCCCC(=O)*; Aib = CC(C)(N)C(=O)O

Key:
[1] = Chemical stability assessment, UPLC-UV purity loss in buffer system A; type: physicochemical; conditions: 1 mg/ml, 25 mM acetate buffer pH 4.5 with m-cresol
Description: Prior to the chemical stability measurement of a peptide batch, its purity was determined through UPLC/MS. For stability testing the target concentration was 1 mg pure compound/ml. Therefore solutions from solid samples were prepared in a buffer system with a concentration of 1 mg/mL compound based on the previously determined % purity:
Chemical stability buffer system A) 25 mM acetate buffer pH 4.5, 3 mg/mL L-Methionine, 2.7 mg/mL m-cresol, 18 mg/mL Glycerol 85% Chemical stability buffer system B) 25 mM phosphate buffer pH 6.0, 3 mg/mL L-Methionine, 2.7 mg/mL m-cresol, 18 mg/mL Glycerol 85%
Peptide solutions were filtered through […] pore size and filled into aliquots under aseptic conditions. At starting point, UPLC-UV was performed by injection of 2 μl of the undiluted sample.
For chemical stability testing, aliquots were stored for 28 days at 5 and 40° C. After this time course the samples were centrifuged for 15 min at 2500 RCF. Then 2 μl of the undiluted supernatant were analysed with UPLC-UV.
The chemical stability was rated through the relative loss of purity calculated by the equation: [(purity at starting point)−(purity after 28 days at X° C.)]/(purity at starting point)]*100%
The purity is calculated as
[(peak area peptide)/(total peak area)]*100%
Peptide samples were prepared in Chemical stability buffer system A and the stability was assessed as described in Methods.

[2] = Thioflavin T (ThT) assay for physical stability (fibrillation); type: physicochemical; conditions: 3 mg/ml, 100 mM acetate pH 4.5 with m-cresol, 37° C. shaking
Procedure, shortened: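 Peptides at 3 mg/ml final with 100 μM ThT final in 100 mM acetate pH 4.5 containing 2.7 mg/mL m-cresol, eight replicates. Stressed at 37° C by repeated cycles of 10 s shaking at 960 rpm and 50 s rest. Fluorescence read every 20 minutes; lag time in hours taken from the sigmoidal kinetic curve.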

[3] = system: female diabetic db/db mice; assay: Acute effects after s.c. treatment on blood glucose in non-fasting female diabetic db/db mice; type: in vivo; conditions: single 30 μg/kg s.c.
Description: Female healthy, lean BKS.Cg-(lean)/OlaHsd and diabetes-prone, obese BKS.Cg-+Lepr^db/+Lepr^db/OlaHsd mice were ordered group housed from Envigo RMS Inc., shipped group housed and remained group housed in shoebox caging with wood chip bedding until day 15 of the predose phase. At the study start mice were approximately 12 weeks old.
Mice were housed under vivarium conditions including a 12 h light/dark cycle (light phase 04:00 AM-4:00 PM), room temperatures between 23-26° C. and a relative humidity between 30-70%. All animals had free access to water and Purina Fomulab Diet 5008.
On predose day 9 blood glucose and body mass (approximately between 08:00-10:00 AM) as well as HbA1c measurements were performed. On day 15 of the predose phase animals were assigned to treatment groups (n=8) and to new cages to match mean HbA1c and body masses between all db/db groups. An age-matched lean group was included in the study as a healthy, lean reference.
Prior to day 1 of the dosing phase, the test article was diluted with Phosphate Buffered Saline (PBS, Gibco, without CaCl2 and MgCl2) to a concentration of 1 mg/mL and aliquots of this stock solution were stored at approximately ≤−60° C. On day 1 of the dosing phase the stock aliquot was thawed and the injected test article solution was prepared fresh by diluting it with PBS to achieve the desired concentration.
On Day 1 of the dosing phase db/db mice were either treated once with a s.c. injection of PBS-vehicle or 30 μg/kg test article. The lean reference group was treated once with a s.c. injection of PBS-vehicle. The dosing was initiated and completed between 08:00 and 10:00 AM. The applied volume was 5 ml/kg and the dose was adjusted to the most recent body mass recording of each individual.
Animals had unlimited access to water and feed during the experiment. On day 1 of the dosing phase approximately 5 μL of blood were collected via tail clips at minute −30 and 0 prior to any other inlife activities. At minute 0 mice received a s.c. dose of either PBS-vehicle or 30 μg/kg test article. Further blood samples were harvested at hour 0.25, 0.5, 1, 1.5, 2, 3, 4, 6, 8, and 24 post-dose. Glucose measurements were performed in whole blood using AlphaTRAK glucometers. If the glucose concentrations of two measurements differed by more than 20 mg/dL a third value was recorded. The Area Under the Curve (AUC) for blood glucose was calculated via the trapezoid method and for the duration of the 24 post-dose hours.
In the Figures data are depicted as means±SEM. […] A One Way Analysis of Variance and multiple comparisons (Dunnett's Method) were performed comparing the group of diabetic, obese db/db vehicle mice (n=8) with each diabetic, obese db/db test article treated mice (n=8). […] Non-diabetic, lean-vehicle group data are depicted in the Figures serving as a reference dataset for the non-obese, non-diabetic state.

SMILES	Chemical stability [relative purity loss 28 days 40° C.] (%) at pH 4.5 [1]	Lag time before increase [2]	mean blood glucose concentration 24 hours post-dose relative to baseline [3]	time to normalise hyperglycemia to the non-fasting blood glucose concentrations of lean reference mice [3]
CCCCCCCCCCCCCCCC(=O)N[C@@H](CCC(=O)N[C@@H](CCC(=O)NCCCC[C@H](NC(=O)[C@H](CC(C)C)NC(=O)[C@H](CCCCN)NC(=O)[C@H](CO)NC(=O)[C@H](CC(C)C)NC(=O)[C@H](CC(=O)O)NC(=O)[C@H](CO)NC(=O)[C@@H](NC(=O)[C@H](Cc1ccccc1)NC(=O)[C@@H](NC(=O)CNC(=O)[C@H](Cc1c[nH]cn1)NC(=O)C(C)(C)NC(=O)[C@@H](N)Cc1c[nH]cn1)[C@@H](C)O)[C@@H](C)O)C(=O)N[C@@H](CCC(=O)O)C(=O)N[C@@H](CCC(=O)O)C(=O)N[C@@H](CCC(N)=O)C(=O)N[C@@H](CCCNC(=N)N)C(=O)N[C@@H](CCC(N)=O)C(=O)N[C@@H](CCCCN)C(=O)N[C@@H](CCC(=O)O)C(=O)N[C@@H](Cc1ccccc1)C(=O)N[C@H](C(=O)N[C@@H](CCC(=O)O)C(=O)N[C@@H](Cc1c[nH]c2ccccc12)C(=O)N[C@@H](CC(C)C)C(=O)N[C@@H](CCCCN)C(=O)N[C@@H](C)C(=O)NCC(=O)NCC(=O)N[C@@H](Cc1c[nH]cn1)C(=O)N1CCC[C@H]1C(=O)N[C@@H](CO)C(=O)NC(C)(C)C(=O)N[C@@H](CCCCN)C(=O)N1CCC[C@H]1C(=O)N1CCC[C@H]1C(=O)N1CCC[C@H]1C(=O)N[C@@H](CCCCN)C(N)=O)[C@@H](C)CC)C(=O)O)C(=O)O [SEQ ID NO: 6, H-Aib-H-G-T-F-T-S-D-L-S-K-L-K[gGlu-gGlu-Palm]-E-E-Q-R-Q-K-E-F-I-E-W-L-K-A-G-G-H-P-S-Aib-K-P-P-P-K-NH2]	7.1%	>45 h	at or close to baseline	
CCCCCCCCCCCCCCCC(=O)N[C@@H](CCC(=O)N[C@@H](CCC(=O)NCCCC[C@H](NC(=O)[C@H](CC(C)C)NC(=O)[C@H](CCCCN)NC(=O)[C@H](CO)NC(=O)[C@H](CC(C)C)NC(=O)[C@H](CC(=O)O)NC(=O)[C@H](CO)NC(=O)[C@@H](NC(=O)[C@H](Cc1ccccc1)NC(=O)[C@@H](NC(=O)CNC(=O)[C@H](Cc1c[nH]cn1)NC(=O)C(C)(C)NC(=O)[C@@H](N)Cc1c[nH]cn1)[C@@H](C)O)[C@@H](C)O)C(=O)N[C@@H](CCC(=O)O)C(=O)N[C@@H](CCC(=O)O)C(=O)N[C@@H](CCC(N)=O)C(=O)N[C@@H](CCCNC(=N)N)C(=O)N[C@@H](CCC(N)=O)C(=O)N[C@@H](CCCCN)C(=O)N[C@@H](CCC(=O)O)C(=O)N[C@@H](Cc1ccccc1)C(=O)N[C@H](C(=O)N[C@@H](CCC(=O)O)C(=O)N[C@@H](Cc1c[nH]c2ccccc12)C(=O)N[C@@H](CC(C)C)C(=O)N[C@@H](CCCCN)C(=O)N[C@@H](C)C(=O)N[C@H](C)C(=O)NCC(=O)N[C@@H](Cc1c[nH]cn1)C(=O)N1CCC[C@H]1C(=O)N[C@@H](CO)C(=O)NC(C)(C)C(=O)N[C@@H](CCCCN)C(=O)N1CCC[C@H]1C(=O)N1CCC[C@H]1C(=O)N1CCC[C@H]1C(=O)N[C@@H](CCCCN)C(N)=O)[C@@H](C)CC)C(=O)O)C(=O)O [SEQ ID NO: 7, H-Aib-H-G-T-F-T-S-D-L-S-K-L-K[gGlu-gGlu-Palm]-E-E-Q-R-Q-K-E-F-I-E-W-L-K-A-dAla-G-H-P-S-Aib-K-P-P-P-K-NH2] (H-H[Aib]HGTFTSDLSKLK([γGlu-γGlu-Palmitoyl])EEQRQKEFIEWLKA[dA]GHPS[Aib]KPPPK-NH2)	8.1%	>45 h	at baseline	≤ 6 h
CCCCCCCCCCCCCCCC(=O)N[C@@H](CCC(=O)N[C@@H](CCC(=O)NCCCC[C@H](NC(=O)[C@H](CC(C)C)NC(=O)[C@H](CCCCN)NC(=O)[C@H](CO)NC(=O)[C@H](CC(C)C)NC(=O)[C@H](CC(=O)O)NC(=O)[C@H](CO)NC(=O)[C@@H](NC(=O)[C@H](Cc1ccccc1)NC(=O)[C@@H](NC(=O)CNC(=O)[C@H](Cc1c[nH]cn1)NC(=O)C(C)(C)NC(=O)[C@@H](N)Cc1c[nH]cn1)[C@@H](C)O)[C@@H](C)O)C(=O)N[C@@H](CCC(=O)O)C(=O)N[C@@H](CCC(=O)O)C(=O)N[C@@H](CCC(N)=O)C(=O)N[C@@H](CCCNC(=N)N)C(=O)N[C@@H](CCC(N)=O)C(=O)N[C@@H](CCCCN)C(=O)N[C@@H](CCC(=O)O)C(=O)N[C@@H](Cc1ccccc1)C(=O)N[C@H](C(=O)N[C@@H](CCC(=O)O)C(=O)N[C@@H](Cc1c[nH]c2ccccc12)C(=O)N[C@@H](CC(C)C)C(=O)N[C@@H](CCCCN)C(=O)N[C@@H](C)C(=O)NCC(=O)NCC(=O)N1CCC[C@H]1C(=O)N1CCC[C@H]1C(=O)N[C@@H](CO)C(=O)NC(C)(C)C(=O)N[C@@H](CCCCN)C(=O)N1CCC[C@H]1C(=O)N1CCC[C@H]1C(=O)N1CCC[C@H]1C(=O)N[C@@H](CCCCN)C(N)=O)[C@@H](C)CC)C(=O)O)C(=O)O [SEQ ID NO: 8, H-Aib-H-G-T-F-T-S-D-L-S-K-L-K[gGlu-gGlu-Palm]-E-E-Q-R-Q-K-E-F-I-E-W-L-K-A-G-G-P-P-S-Aib-K-P-P-P-K-NH2]	10.3%	>45 h	at or close to baseline	
CCCCCCCCCCCCCCCC(=O)N[C@@H](CCC(=O)N[C@@H](CCC(=O)NCCCC[C@H](NC(=O)[C@H](CC(C)C)NC(=O)[C@H](CCCCN)NC(=O)[C@H](CO)NC(=O)[C@H](CC(C)C)NC(=O)[C@H](CC(=O)O)NC(=O)[C@H](CO)NC(=O)[C@@H](NC(=O)[C@H](Cc1ccccc1)NC(=O)[C@@H](NC(=O)CNC(=O)[C@H](Cc1c[nH]cn1)NC(=O)C(C)(C)NC(=O)[C@@H](N)Cc1c[nH]cn1)[C@@H](C)O)[C@@H](C)O)C(=O)N[C@@H](CCC(=O)O)C(=O)N[C@@H](CCC(=O)O)C(=O)N[C@@H](CCC(N)=O)C(=O)N[C@@H](CCCNC(=N)N)C(=O)N[C@@H](CCC(N)=O)C(=O)N[C@@H](CCCCN)C(=O)N[C@@H](CCC(=O)O)C(=O)N[C@@H](Cc1ccccc1)C(=O)N[C@H](C(=O)N[C@@H](CCC(=O)O)C(=O)N[C@@H](Cc1c[nH]c2ccccc12)C(=O)N[C@@H](CC(C)C)C(=O)N[C@@H](CCCCN)C(=O)N[C@@H](C)C(=O)N[C@H](C)C(=O)NCC(=O)N1CCC[C@H]1C(=O)N1CCC[C@H]1C(=O)N[C@@H](CO)C(=O)NC(C)(C)C(=O)N[C@@H](CCCCN)C(=O)N1CCC[C@H]1C(=O)N1CCC[C@H]1C(=O)N1CCC[C@H]1C(=O)N[C@@H](CCCCN)C(N)=O)[C@@H](C)CC)C(=O)O)C(=O)O [SEQ ID NO: 9, H-Aib-H-G-T-F-T-S-D-L-S-K-L-K[gGlu-gGlu-Palm]-E-E-Q-R-Q-K-E-F-I-E-W-L-K-A-dAla-G-P-P-S-Aib-K-P-P-P-K-NH2] (H-H[Aib]HGTFTSDLSKLK([γGlu-γGlu-Palmitoyl])EEQRQKEFIEWLKA[dA]GPPS[Aib]KPPPK-NH2)	6.9%	>45 h	at or close to baseline	
